Experimental data from BigSolDB 2.1.

O=C(O)C(O)c1ccccc1 (racemic)
Conditions | solubility (mole fraction)
in ethanol, 294.65 K | 0.247
in ethanol, 299.45 K | 0.261
in ethanol, 303.85 K | 0.274
in ethanol, 308.25 K | 0.292
in ethanol, 314.65 K | 0.325
in ethanol, 319.15 K | 0.349
in ethanol, 324.85 K | 0.376
in ethanol, 328.55 K | 0.394
in ethanol, 333.45 K | 0.418
in ethanol, 338.15 K | 0.439
in isopropanol, 293.15 K | 0.213
in isopropanol, 298.15 K | 0.236
in isopropanol, 305.15 K | 0.262
in isopropanol, 308.15 K | 0.272
in isopropanol, 313.15 K | 0.294
in isopropanol, 318.15 K | 0.315
in isopropanol, 323.15 K | 0.338
in isopropanol, 328.15 K | 0.362
in isopropanol, 333.15 K | 0.383
in isopropanol, 338.15 K | 0.41
in methanol, 283.15 K | 0.236
in methanol, 288.15 K | 0.243
in methanol, 293.15 K | 0.256
in methanol, 298.15 K | 0.265
in methanol, 304.65 K | 0.281
in methanol, 308.15 K | 0.293
in methanol, 313.15 K | 0.308
in methanol, 318.15 K | 0.323
in n-propanol, 293.15 K | 0.196
in n-propanol, 298.15 K | 0.213
in n-propanol, 305.35 K | 0.237
in n-propanol, 308.15 K | 0.252
in n-propanol, 313.15 K | 0.275
in n-propanol, 318.15 K | 0.3
in n-propanol, 323.15 K | 0.325
in n-propanol, 328.15 K | 0.347
in n-propanol, 333.15 K | 0.368
in n-propanol, 338.15 K | 0.39
in water, 293.15 K | 0.018
in water, 298.15 K | 0.0233
in water, 303.15 K | 0.037
in water, 308.15 K | 0.0656
in water, 313.15 K | 0.11
in water, 318.15 K | 0.16
in water, 323.15 K | 0.206
in water, 328.15 K | 0.237
in water, 333.15 K | 0.278
in water, 338.15 K | 0.317
